target: T1, S. aureus TrmD (Staphylococcus aureus, UniProt Q2FZ43); test: nanoSAR direct-to-biology FP displacement screening of crude triazoles; assay type: binding; details: crude triazole at 1 μM, assuming full conversion; 500 nM TrmD, 10 nM tracer 4
T1 construct: made in house; host or cells: E. coli BL21
T1 sequence (Q2FZ43 1-245): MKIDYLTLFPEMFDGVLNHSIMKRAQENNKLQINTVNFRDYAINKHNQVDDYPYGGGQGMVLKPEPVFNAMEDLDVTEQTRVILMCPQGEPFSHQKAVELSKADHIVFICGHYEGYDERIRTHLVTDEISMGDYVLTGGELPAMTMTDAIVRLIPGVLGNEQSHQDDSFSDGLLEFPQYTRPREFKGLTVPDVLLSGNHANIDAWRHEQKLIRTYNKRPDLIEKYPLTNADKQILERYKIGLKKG
Procedure, shortened: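 S. aureus TrmD (500 nM) with tracer 4 (10 nM) in Tris/NaCl/MgCl2/glycerol buffer, pH 7.5, was challenged with unpurified triazoles from in situ CuAAC of alkyne 7 with a 320-member azide library.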

Row | Compound | % displaced tracer [%]
1 | C[C@@H](CN)n1cc(-c2c[nH]c3nc[nH]c(=O)c23)nn1 [Compound 03H12, O=C1NC=NC2=C1C(C3=CN([C@H](CN)C)N=N3)=CN2] | 20

same assay, conditions: crude triazole at 1 μM, assuming full conversion; 500 nM TrmD, 10 nM tracer 4; read-out: % displaced tracer

Row | Compound | inhibition at 1 µM [%]
2 | O=c1[nH]cnc2[nH]cc(-c3cn(-c4cccc5ccncc45)nn3)c12 [Compound 03F04, O=C1NC=NC=2NC=C(C=3N=NN(c4c5c(ccnc5)ccc4)C3)C12] | 22
3 | COc1nc(OC)nc(-n2cc(-c3c[nH]c4nc[nH]c(=O)c34)nn2)n1 [Compound 03F05, O=C1NC=NC=2NC=C(C=3N=NN(c4nc(OC)nc(OC)n4)C3)C12] | 33
4 | COC(=O)c1cccc2nc(Cn3cc(-c4c[nH]c5nc[nH]c(=O)c45)nn3)cn12 [Compound 03F06, O=C(OC)C=1N2C(=NC(=C2)CN3N=NC(C=4C=5C(=O)NC=NC5NC4)=C3)C=CC1] | 26
5 | Cc1cc(F)ccc1[C@H](C)n1cc(-c2c[nH]c3nc[nH]c(=O)c23)nn1 [Compound 03F07, Fc1cc(c(cc1)[C@@H](N2N=NC(C=3C=4C(=O)NC=NC4NC3)=C2)C)C] | 51
6 | CCC1(Cn2cc(-c3c[nH]c4nc[nH]c(=O)c34)nn2)COC1 [Compound 03F08, O=C1NC=NC=2NC=C(C=3N=NN(C3)CC4(COC4)CC)C12] | 76
7 | O=c1[nH]cnc2[nH]cc(-c3cn(-c4cc(F)cc(F)c4)nn3)c12 [Compound 03F09, Fc1cc(F)cc(N2N=NC(C=3C=4C(=O)NC=NC4NC3)=C2)c1] | 25
8 | Cc1ccc(-n2cc(-c3c[nH]c4nc[nH]c(=O)c34)nn2)nc1 [Compound 03F10, O=C1NC=NC=2NC=C(C=3N=NN(c4ncc(cc4)C)C3)C12] | 18
9 | CC(C)(C)OC(=O)N1CCC[C@H](CCn2cc(-c3c[nH]c4nc[nH]c(=O)c34)nn2)CC1 [Compound 03F11, O=C(OC(C)(C)C)N1CC[C@@H](CCN2N=NC(C=3C=4C(=O)NC=NC4NC3)=C2)CCC1] | 71
10 | O=c1[nH]cnc2[nH]cc(-c3cn(C4CNC4)nn3)c12 [Compound 03F12, O=C1NC=NC=2NC=C(C=3N=NN(C3)C4C[NH2+]C4)C12] | 42
11 | COc1cccc(-n2cc(-c3c[nH]c4nc[nH]c(=O)c34)nn2)c1 [Compound 03G01, O=C1NC=NC=2NC=C(C=3N=NN(c4cc(OC)ccc4)C3)C12] | 11
12 | O=c1[nH]cnc2[nH]cc(-c3cn(Cc4cnns4)nn3)c12 [Compound 03G02, S1N=NC=C1CN2N=NC(C=3C=4C(=O)NC=NC4NC3)=C2] | 73
13 | Cc1nc2cc(-n3cc(-c4c[nH]c5nc[nH]c(=O)c45)nn3)ccc2[nH]1 [Compound 03G03, O=C1NC=NC=2NC=C(C=3N=NN(c4cc5N=C(Nc5cc4)C)C3)C12] | 21
14 | O=c1[nH]cnc2[nH]cc(-c3cn([C@H]4CCc5cccnc54)nn3)c12 [Compound 03G04, O=C1NC=NC=2NC=C(C=3N=NN(C3)[C@@H]4c5ncccc5CC4)C12] | 49
15 | Cn1ccc(-n2cc(-c3c[nH]c4nc[nH]c(=O)c34)nn2)n1 [Compound 03G05, O=C1NC=NC=2NC=C(C=3N=NN(C4=NN(C=C4)C)C3)C12] | 25
16 | O=c1[nH]cnc2[nH]cc(-c3cn(-c4ccc5[nH]cnc5c4)nn3)c12 [Compound 03G06, O=C1NC=NC=2NC=C(C=3N=NN(c4cc5N=CNc5cc4)C3)C12] | 27
17 | COc1ccccc1[C@H](O)Cn1cc(-c2c[nH]c3nc[nH]c(=O)c23)nn1 [Compound 03G07, O=C1NC=NC=2NC=C(C=3N=NN(C3)C[C@@H](O)c4c(OC)cccc4)C12] | 37
18 | COC(=O)c1csc(Cn2cc(-c3c[nH]c4nc[nH]c(=O)c34)nn2)n1 [Compound 03G08, S1C(=NC(C(=O)OC)=C1)CN2N=NC(C=3C=4C(=O)NC=NC4NC3)=C2] | 10
19 | O=c1[nH]cnc2[nH]cc(-c3cn(C4COC4)nn3)c12 [Compound 03G09, O=C1NC=NC=2NC=C(C=3N=NN(C3)C4COC4)C12] | 19
20 | CN1CCN(CCn2cc(-c3c[nH]c4nc[nH]c(=O)c34)nn2)CC1 [Compound 03G10, O=C1NC=NC=2NC=C(C=3N=NN(C3)CC[N@H+]4CC[N@@H+](CC4)C)C12] | 11
21 | NCc1cccc(-n2cc(-c3c[nH]c4nc[nH]c(=O)c34)nn2)c1 [Compound 03G11, O=C1NC=NC=2NC=C(C=3N=NN(c4cc(ccc4)C[NH3+])C3)C12] | 32
22 | O=c1[nH]cnc2[nH]cc(-c3cn(C[C@H]4CCCNC4)nn3)c12 [Compound 03H01, O=C1NC=NC=2NC=C(C=3N=NN(C3)C[C@@H]4C[NH2+]CCC4)C12] | 56
23 | CC(C)NC(=O)[C@H](C)n1cc(-c2c[nH]c3nc[nH]c(=O)c23)nn1 [Compound 03H02, O=C1NC=NC=2NC=C(C=3N=NN(C3)[C@H](C(=O)NC(C)C)C)C12] | 17
24 | Cc1cccc(CCn2cc(-c3c[nH]c4nc[nH]c(=O)c34)nn2)n1 [Compound 03H03, O=C1NC=NC=2NC=C(C=3N=NN(C3)CCc4nc(ccc4)C)C12] | 26

Row | Compound | inhibition at 1 µM [%]
25 | O=c1[nH]cnc2[nH]cc(-c3cn([C@@H]4CCc5c(F)cccc54)nn3)c12 [Compound 03H04, Fc1c2c(ccc1)[C@H](N3N=NC(C=4C=5C(=O)NC=NC5NC4)=C3)CC2] | 68
26 | O=c1[nH]cnc2[nH]cc(-c3cn(CCCN4CCCC4)nn3)c12 [Compound 03H05, O=C1NC=NC=2NC=C(C=3N=NN(C3)CCC[NH+]4CCCC4)C12] | 40
27 | COC(=O)C1(n2cc(-c3c[nH]c4nc[nH]c(=O)c34)nn2)CC1 [Compound 03H06, O=C(OC)C1(N2N=NC(C=3C=4C(=O)NC=NC4NC3)=C2)CC1] | 24
28 | O=c1[nH]cnc2[nH]cc(-c3cn(CCCc4ccccc4)nn3)c12 [Compound 03H07, O=C1NC=NC=2NC=C(C=3N=NN(C3)CCCc4ccccc4)C12] | 61
29 | O=c1[nH]cnc2[nH]cc(-c3cn(C[C@@H]4CCCCNC4)nn3)c12 [Compound 03H08, O=C1NC=NC=2NC=C(C=3N=NN(C3)C[C@H]4C[NH2+]CCCC4)C12] | 81
30 | NCCCCCCn1cc(-c2c[nH]c3nc[nH]c(=O)c23)nn1 [Compound 03H09, O=C1NC=NC=2NC=C(C=3N=NN(C3)CCCCCC[NH3+])C12] | 50
31 | O=c1[nH]cnc2[nH]cc(-c3cn(CCOc4ccc(Cl)cc4)nn3)c12 [Compound 03H10, Clc1ccc(OCCN2N=NC(C=3C=4C(=O)NC=NC4NC3)=C2)cc1] | 85
32 | CC(C)(C)n1cc(-c2c[nH]c3nc[nH]c(=O)c23)nn1 [Compound 03H11, O=C1NC=NC=2NC=C(C=3N=NN(C3)C(C)(C)C)C12] | 11
33 | C[C@@H](O)Cn1cc(-c2c[nH]c3nc[nH]c(=O)c23)nn1 [Compound 04A01, O=C1NC=NC=2NC=C(C=3N=NN(C3)C[C@H](O)C)C12] | 15
34 | CC[C@H](c1ccccn1)n1cc(-c2c[nH]c3nc[nH]c(=O)c23)nn1 [Compound 04A02, O=C1NC=NC=2NC=C(C=3N=NN(C3)[C@@H](c4ncccc4)CC)C12] | 15
35 | CC(C)(C)Cn1cc(-c2c[nH]c3nc[nH]c(=O)c23)nn1 [Compound 04A03, O=C1NC=NC=2NC=C(C=3N=NN(C3)CC(C)(C)C)C12] | 19
36 | O=c1[nH]cnc2[nH]cc(-c3cn(Cc4ccncc4)nn3)c12 [Compound 04A04, O=C1NC=NC=2NC=C(C=3N=NN(C3)Cc4ccncc4)C12] | 11
37 | O=c1[nH]cnc2[nH]cc(-c3cn([C@H]4C=CCCCC4)nn3)c12 [Compound 04B01, O=C1NC=NC=2NC=C(C=3N=NN(C3)[C@H]4C=CCCCC4)C12] | 32
38 | Cn1nncc1-n1cc(-c2c[nH]c3nc[nH]c(=O)c23)nn1 [Compound 04B02, O=C1NC=NC=2NC=C(C=3N=NN(C=4N(N=NC4)C)C3)C12] | 63
39 | O=c1[nH]cnc2[nH]cc(-c3cn(-c4ccc(CO)cc4)nn3)c12 [Compound 04B03, O=C1NC=NC=2NC=C(C=3N=NN(c4ccc(cc4)CO)C3)C12] | 47
40 | O=c1[nH]cnc2[nH]cc(-c3cn(CCO)nn3)c12 [Compound 04B04, O=C1NC=NC=2NC=C(C=3N=NN(C3)CCO)C12] | 63
41 | Cc1cncc(CCn2cc(-c3c[nH]c4nc[nH]c(=O)c34)nn2)n1 [Compound 04C01, O=C1NC=NC=2NC=C(C=3N=NN(C3)CCc4nc(cnc4)C)C12] | 69
42 | O=c1[nH]cnc2[nH]cc(-c3cn(Cc4ccc(Cl)s4)nn3)c12 [Compound 04C02, ClC=1SC(=CC1)CN2N=NC(C=3C=4C(=O)NC=NC4NC3)=C2] | 92
43 | CC(C)(C)OC(=O)N1CC[C@H](C2CC2)[C@H]1Cn1cc(-c2c[nH]c3nc[nH]c(=O)c23)nn1 [Compound 04C03, O=C(OC(C)(C)C)N1[C@@H]([C@@H](C2CC2)CC1)CN3N=NC(C=4C=5C(=O)NC=NC5NC4)=C3] | 52
44 | O=c1[nH]cnc2[nH]cc(-c3cn([C@@H]4CC[C@H]4F)nn3)c12 [Compound 04C04, F[C@H]1[C@H](N2N=NC(C=3C=4C(=O)NC=NC4NC3)=C2)CC1] | 21
45 | O=C1CCC[C@@H](Cn2cc(-c3c[nH]c4nc[nH]c(=O)c34)nn2)N1 [Compound 04D01, O=C1NC=NC=2NC=C(C=3N=NN(C3)C[C@H]4NC(=O)CCC4)C12] | 75
46 | C[C@H]1CCCC[C@]1(C)n1cc(-c2c[nH]c3nc[nH]c(=O)c23)nn1 [Compound 04D02, O=C1NC=NC=2NC=C(C=3N=NN(C3)[C@@]4([C@H](CCCC4)C)C)C12] | 27
47 | CO[C@H]1COC[C@@H]1n1cc(-c2c[nH]c3nc[nH]c(=O)c23)nn1 [Compound 04D03, O=C1NC=NC=2NC=C(C=3N=NN(C3)[C@@H]4[C@@H](OC)COC4)C12] | 37

From paper PMC12751012, “Nanoscale Direct-to-Biology Optimization and Structural Insights into Selective S. aureus TrmD Inhibitors” (Journal of Medicinal Chemistry, 2025)
